Measurements published in patent US6437128B1, “Cribrostatins 3-5” (Arizona Board of Regents, priority 2001, dated 2002).

How the values were obtained:
COLO 205 = experiment: NCI 60-cell screen; type: cell-based, human; details: Homo sapiens, averaged, quadruplicate, upper limit 10^−5 M, read-out: negative log10 GI50 (converted)
[1] = tested on: Escherichia coli (ATCC 25922); experiment: Antimicrobial disk diffusion; type: cell-based
SW-620 = experiment: NCI 60-cell screen; type: cell-based, human; details: Homo sapiens, averaged, quadruplicate, upper limit 10^−5 M, read-out: negative log10 GI50 (converted)
MOLT-4 = experiment: NCI 60-cell screen; type: cell-based, human; details: Homo sapiens, averaged, quadruplicate, upper limit 10^−5 M, read-out: negative log10 GI50 (converted)
MDA-MB-231/ATCC = experiment: NCI 60-cell screen; type: cell-based, human; details: Homo sapiens, averaged, quadruplicate, upper limit 10^−5 M, read-out: negative log10 GI50 (converted)
IGROV1 = experiment: NCI 60-cell screen; type: cell-based, human; details: Homo sapiens, IGROV-1, averaged, quadruplicate, upper limit 10^−5 M, read-out: negative log10 GI50 (converted)
MDA-MB-435 = experiment: NCI 60-cell screen; type: cell-based, human; details: Homo sapiens, averaged, quadruplicate, upper limit 10^−5 M, read-out: negative log10 GI50 (converted)
[2] = tested on: Invasive S. pneumoniae (clinical isolate); experiment: Antimicrobial disk diffusion; type: cell-based
MALME-3M = experiment: NCI 60-cell screen; type: cell-based, human; details: Homo sapiens, averaged, quadruplicate, upper limit 10^−5 M, read-out: negative log10 GI50 (converted)
HL-60 (TB) = experiment: NCI 60-cell screen; type: cell-based, human; details: Homo sapiens, averaged, quadruplicate, upper limit 10^−5 M, read-out: negative log10 GI50 (converted)
CCRF-CEM = experiment: NCI 60-cell screen; type: cell-based, human; details: Homo sapiens, averaged, quadruplicate, upper limit 10^−5 M, read-out: negative log10 GI50 (converted)
MDA-N = experiment: NCI 60-cell screen; type: cell-based, human; details: Homo sapiens, averaged, quadruplicate, upper limit 10^−5 M, read-out: negative log10 GI50 (converted)
UACC-62 = experiment: NCI 60-cell screen; type: cell-based, human; details: Homo sapiens, averaged, quadruplicate, upper limit 10^−5 M, read-out: negative log10 GI50 (converted)
SNB-75 = experiment: NCI 60-cell screen; type: cell-based, human; details: Homo sapiens, averaged, quadruplicate, upper limit 10^−5 M, read-out: negative log10 GI50 (converted)
OVCAR4 = experiment: NCI 60-cell screen; type: cell-based, human; details: Homo sapiens, OVCAR-4, averaged, quadruplicate, upper limit 10^−5 M, read-out: negative log10 GI50 (converted)
NCI-H226 = experiment: NCI 60-cell screen; type: cell-based, human; details: Homo sapiens, averaged, quadruplicate, upper limit 10^−5 M, read-out: negative log10 GI50 (converted)
[3] = tested on: Cryptococcus neoformans (ATCC 90112); experiment: Antimicrobial disk diffusion; type: cell-based
KM 12 = experiment: NCI 60-cell screen; type: cell-based, human; details: Homo sapiens, KM12, averaged, quadruplicate, upper limit 10^−5 M, read-out: negative log10 GI50 (converted)
MCF7 = experiment: NCI 60-cell screen; type: cell-based, human; details: Homo sapiens, averaged, quadruplicate, upper limit 10^−5 M, read-out: negative log10 GI50 (converted)
[4] = tested on: Neisseria gonorrhoeae (ATCC 49226); experiment: Antimicrobial disk diffusion; type: cell-based
[5] = tested on: Bacillus subtilis (Presque Isle 620); experiment: Antimicrobial disk diffusion; type: cell-based; details: listed as 5
PC-3 = experiment: NCI 60-cell screen; type: cell-based, human; details: Homo sapiens, averaged, quadruplicate, upper limit 10^−5 M, read-out: negative log10 GI50 (converted)
SR = experiment: NCI 60-cell screen; type: cell-based, human; details: Homo sapiens, averaged, quadruplicate, upper limit 10^−5 M, read-out: negative log10 GI50 (converted)
[6] = tested on: Micrococcus luteus (Presque Isle 456); experiment: Antimicrobial disk diffusion; type: cell-based; details: listed as 5

C/C=C(/C)C(=O)OC[C@H]1C2=C(C=C3[C@H]4c5c(O)c(OC)c(C)c(O)c5C(=O)[C@@H](C(=O)N31)N4C)C(=O)C(C)=C(OC)C2=O [Cribrostatin 4, cribrostatin 4]
GI50 (COLO 205): 8.13 µM
Minimum inhibitory concentration [1]: * (No inhibition at 100 μg/disk)
GI50 (SW-620): 6.92 µM
GI50 (MOLT-4): 1.91 µM
GI50 (MDA-MB-231/ATCC): 2.69 µM
GI50 (IGROV1): 8.51 µM
GI50 (MDA-MB-435): 1.82 µM
Minimum inhibitory concentration [2]: * (No inhibition at 100 μg/disk)
GI50 (MALME-3M): 0.389 µM
GI50 (HL-60 (TB)): 5.37 µM
GI50 (CCRF-CEM): 1.7 µM
GI50 (MDA-N): 2.19 µM
GI50 (UACC-62): 9.77 µM
GI50 (SNB-75): 5.62 µM
GI50 (OVCAR4): 1.82 µM
GI50 (NCI-H226): 7.94 µM
Minimum inhibitory concentration [3]: * (No inhibition at 100 μg/disk)
GI50 (KM 12): 9.12 µM
GI50 (MCF7): 8.13 µM
Minimum inhibitory concentration [4]: 6.25-12.5 μg/disk
Minimum inhibitory concentration [5]: 12.5-25 μg/disk
melting point: 190 to 192 °C (dec.)
GI50 (PC-3): 9.12 µM
GI50 (SR): 3.8 µM
Minimum inhibitory concentration [6]: * (No inhibition at 100 μg/disk)
